According to patent US11203636B2, “Treatment of existing left ventricular heart failure” (YALE UNIVERSITY, priority 2017, dated 2021):

Tests used:
[1] = tested on: NKCC2, ENaC-beta, and NCC proteins in mouse M1 CCD cell line; test: Expression of NKCC2, ENaC-beta and NCC in M1 CCD cells after treatment with IL-6 and/or Spironolactone (immunoblotting); format: cell-based; settings: FIGS. 5A-5C
Procedure: (§1) The mouse M1 CCD cell line (American Type Culture Collection (ATCC), Cat #CRL-2038) was maintained the cell culture medium containing equal amount of DMEM (Sigma-Aldrich, Cat #D6046) and Han F12 (Sigma-Aldrich, Cat #11765-047), supplemented with 5% Fetal Bovine Serum (FBS), 1% Penicillin-Streptomycin (Thermo Fisher Scientific, Cat #15140-122), 1% Insulin-Transferrin-Selenium (Thermo Fisher Scientific, Cat #51500-056) and 100 nM Dexamethasone (Sigma-Aldrich, Cat #D4902-100MG).
(§2) M1 CCD cells were seeded at 1 million/well in 6-well plate in the cell culture medium, and incubated overnight in a 37° C., 5% CO2 incubator on Day 0. The cell culture medium was changed to DMEM/F12 serum-free medium on Day 1 and the cells were incubated overnight in a 37° C., 5% CO2 incubator. On Day 2, the serum-free medium was removed and the cell culture medium was added to each well. Spironolactone (Selleckchem, Cat #54054) was added at the final concentration of 1 μM or 100 μM 10 min before the addition of IL-6 (Sigma-Aldrich, Cat #SRP3096-20UG) at the final concentration of 10 ng/mL, 100 ng/mL, or 500 ng/mL. A control well without Spironolactone or IL-6 was included. […] The sample were analyzed by immunoblotting using anti-NKCC2 antibody (Millipore, Cat #AB3562P), anti-ENaC-beta antibody (Millipore, Cat #AB3532P), or anti-NCC antibody (Millipore, Cat #AB3553) and the protein expression was quantified. […]

[2] = tested on: NKCC2, ENaC-beta, and NCC proteins in mouse M1 CCD cell line; test: Expression of NKCC2, ENaC-beta and NCC in M1 CCD cells after treatment with IL-6 and/or Ruxolitinib (immunoblotting); format: cell-based; settings: IL-6 10, 100 or 500 ng/mL, 24 hours, FIGS. 4A-4C
Procedure: as §1
as §2, with “Ruxolitinib” for “Spironolactone”, “#51378)” for “#54054)”

Compound | expression of NKCC2, ENaC-beta, and NCC after treatment of IL-6 ([1]; IL-6 10, 100 or 500 ng/mL, 24 hours, immunoblotting) | expression of NKCC2, ENaC-beta, and NCC after treatment of IL-6 [2] | effect of Spironolactone on the IL-6 effect on ion transporter proteins (NKCC2, ENaC-beta, NCC) ([1]; Spironolactone 1 μM or 100 μM added 10 min before IL-6, 24 hours)
IL-6: pro-inflammatory cytokine added to cells (Sigma-Aldrich, Cat #SRP3096-20UG) | increased the expression of NKCC2, ENaC-beta, and NCC | increased the expression of NKCC2, ENaC-beta, and NCC | –
CC(=O)S[C@@H]1CC2=CC(=O)CC[C@]2(C)[C@H]2CC[C@@]3(C)[C@@H](CC[C@@]34CCC(=O)O4)[C@H]12 [Spironolactone] | – | – | blocked the effect of IL-6 on the ion transporter proteins
